Measurements as given in PubChem BioAssay (NCI).
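Cells were grown in 96-well plates and exposed to each compound for 48 hours at five concentrations; endpoints were interpolated linearly between bracketing concentrations, or set to the highest concentration if not reached. Abbreviation: GI50, concentration required for 50% inhibition of growth. TGI marks complete inhibition of growth.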

Columns and labels:
Assay in all cases: NCI anticancer screen, dose series, 48 h
[1] = tested on: SK-MEL-5 melanoma
[2] = tested on: NCI-H522 lung
[3] = tested on: SR leukemia
[4] = tested on: RXF 393 renal
[5] = tested on: OVCAR-8 ovarian
[6] = tested on: HCT-116 colon
[7] = tested on: SF-539 CNS
[8] = tested on: HS 578T breast
[9] = tested on: SNB-75 CNS
[10] = tested on: RPMI-8226 leukemia

SMILES	GI50 [1] [µM]	TGI [1] [µM]	GI50 [2] [µM]	TGI [2] [µM]	GI50 [3] [µM]	TGI [3] [µM]	GI50 [4] [µM]	TGI [4] [µM]	GI50 [5] [µM]	TGI [5] [µM]	GI50 [6] [µM]	TGI [6] [µM]	GI50 [7] [µM]	TGI [7] [µM]	GI50 [8] [µM]	TGI [8] [µM]	GI50 [9] [µM]	TGI [9] [µM]	GI50 [10] [µM]	TGI [10] [µM]
CCOc1ccc(-c2cnnn2-c2nonc2-n2cccc2)cc1	0.245	12.4	0.121	0.531	0.104	41.4	0.172	0.774	0.439	> 100	0.226	1.46	0.319	3.77	0.229	0.873	0.138	0.527	0.32	10.9
CCOC(=O)c1sc2ncn(Cc3cccc(Br)c3)c(=O)c2c1C	25.7	96	9.7	65.8	8.18	88.7	29	> 100	51.1	> 100	30.7	93.8	84.5	> 100	38.6	> 100	69.2	> 100	27.6	> 100
CC1=C(/C=C/C(=O)O)C(C)(C)CCC1		> 100		> 100		> 100		> 100		> 100		> 100		> 100		> 100		> 100		> 100
O=C1c2cccnc2C(=O)C2C3C=CC(C3)C12 (centres undefined)		23.2		13.8		6.65		10.3		30		14		13.4		85.1		25.8		8.97
CCCCOc1ccc(NC(=O)n2nc(N)c3ccccc32)cc1	14.9	28.2	23.9	> 89.1	16	39.5	25.8	61.2	30.3	> 85.9	19.3	55.7	17.2	35.7	20.7	53.4	29.6	82.4	2.63	28.4
COc1ccc2c(c1)=C(C=C1C=CN(O)C=C1)C(=O)N=2	22.8	63.9	20.5	61.6	18.2	> 100	33.9	98.3	29.9	99.7	28.9	> 100	28.8	> 65.8	32.1	> 86.3	15.6	> 88.4	24.1	> 67.7
Nc1nc(N)c(Cn2ccnc2)c(=O)[nH]1		> 100		> 100		> 100		> 100		> 100		> 100		> 100		> 100		> 100		> 100
Fc1ccc(-c2nn3c(-c4ccc(F)c(Cl)c4)nnc3s2)cc1	44.2	> 50	20.8	> 50	43.8	> 50	0.688	18.7	37.1	> 50	21.6	> 50	> 50	> 50	> 50	> 50	11.3	30.4	22.8	> 50
CC(C)(O)C#Cc1ccc(/C=C/C(=O)c2ccccc2)s1	16.1	30.5	16	32.7	3.85	13.8	14.7	28.7	15.9	29.9	4.08	15.4	15.8	29.2	25.5	79.7	13.7	27	3.07	11.5
CCCc1cc(O)c2c3c(c(=O)oc2c1)CN(C)CC3	19	44.7	45.1	> 100	36.1	> 100	23.1	> 100	> 100	> 100	66.8	> 100	43.2	> 100	41.3	> 100	22.1	> 100	24.2	91.2
CCC[CH2][Sn]([CH2]CCC)([O]C(=O)c1cc(F)ccc1F)[O][Sn]([CH2]CCC)([CH2]CCC)[O]C(=O)c1cc(F)ccc1F	0.626	1.83		0.0658	0.14	> 22.3	0.0472	0.191	0.374	1.57	0.293	1.24	0.386	1.22	0.237	0.994	0.365	1.66	0.0916	> 100
Cn1cc(C2=C(c3cn(CCO)c4ccccc34)C(=O)NC2=O)c2ccccc21	2.55	9.67	1.64	10.8	1.02	> 23.3	3.22	9.54	5.48	> 21.9	1.49	> 25	1.4	8.9	1.49	14.5	0.634	6.5	5.33	16
